Several values for one entry are separate records, joined by “and”; a condition that tells them apart may be missing. Equal values may be shown once. Read-outs that look alike come from different tables or passages of the source.
Experiments:
MARK3 = conditions: cited from earlier work
STK10 = conditions: cited from earlier work
BMP2K = conditions: cited from earlier work
CAMK2D = conditions: cited from earlier work
FER = conditions: cited from earlier work
ULK3 = conditions: cited from earlier work
AURKB = conditions: cited from earlier work
PaTu-8988-T = assay: cells; design: ATPlite luminescence viability of PDAC cell lines, 11-dose single-agent curves, 4-parameter fit; conditions: Homo sapiens, PaTu 8988t, 72 h, read-out: EC50 [nM]
In short: (§1)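 Drug-combination screening used cells plated at 1000 to 5000 per well one day before treatment. Final DMSO was 0.2%. Each plate held untreated negative-control wells and 5 µM staurosporine positive-control wells.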

BxPC-3 = assay: cells; design: ATPlite luminescence viability of PDAC cell lines, 11-dose single-agent curves, 4-parameter fit; conditions: Homo sapiens, BXPC-3, 72 h, read-out: EC50 [nM]
In short: as §1

AURKA = conditions: cited from earlier work
AsPC-1 = assay: cells; design: ATPlite luminescence viability of PDAC cell lines, 11-dose single-agent curves, 4-parameter fit; conditions: Homo sapiens, ASPC1, 72 h, read-out: EC50 [nM]
In short: as §1

[1] = tested on: p-sites in MiaPaCa-2 cells; assay: Phosphoproteomics GEM + Elimusertib vs. GEM (non-decryptM); type: cell-based, human
Protocol: (§2) Cell culture medium was replaced 24 h after seeding. […] For time point 0, AsPC-1 cells were treated with a vehicle and lysed immediately. The final DMSO concentration in all experiments was 0.2%.
(§3) Oxidized methionine, N-terminal acetylation, and phosphorylation (STY) were set as variable modification, and cysteine carbamidomethylation was set as fixed modification. All other search parameters were kept as default, except for protein FDR which was set to 1. […] Potential contaminants and reversed hits were removed, and only peptides with unambiguously assigned phosphorylation sites with a localization probability of > 0.75 were retained. To acquire site-level quantification values, the corrected reporter ion intensities of peptides containing the same phosphosite(s) were summed up. Median centering of corrected TMT reporter channel intensities was performed. […] Channel 11 served as a vehicle for the chemodrug treatment and was not subjected to curve fitting. Instead, row-wise normalization was performed across all four TMT-batches using the medians of channels 10 and 11. […] Phosphoproteomic experiments in six additional cell lines (not dose-resolved) were median-centered within each TMT-batch, prior to row-wise normalization across all TMT-batches using a common channel filled with AsPC-1 lysate (Appendix Table S5). Two-sided t-test analysis and multiple hypothesis testing correction was performed in R using the same parameters and thresholds as described above.

[2] = tested on: p-sites in PaTu-8988-T cells; assay: as above; type: cell-based, human
Protocol: as §2, §3

p-sites in Capan-1 cells = assay: as above; type: cell-based, human
Protocol: as §2, §3

p-sites in PSN-1 cells = assay: as above; type: cell-based, human
Protocol: as §2, §3

p-sites in Dan-G cells = assay: as above; type: cell-based, human
Protocol: as §2, §3

p-sites in PANC-1 cells = assay: as above; type: cell-based, human
Protocol: as §2, §3

GSK3A ; P49840 = GSK3A ; P49840 (Homo sapiens, UniProt P49840); assay: biochemical; design: species or system AsPC-1; Kinobeads competition pulldown in AsPC-1 lysate with LC-MS/MS label-free quantification; apparent Kd
Sequence of GSK3A ; P49840 (P49840 whole entry): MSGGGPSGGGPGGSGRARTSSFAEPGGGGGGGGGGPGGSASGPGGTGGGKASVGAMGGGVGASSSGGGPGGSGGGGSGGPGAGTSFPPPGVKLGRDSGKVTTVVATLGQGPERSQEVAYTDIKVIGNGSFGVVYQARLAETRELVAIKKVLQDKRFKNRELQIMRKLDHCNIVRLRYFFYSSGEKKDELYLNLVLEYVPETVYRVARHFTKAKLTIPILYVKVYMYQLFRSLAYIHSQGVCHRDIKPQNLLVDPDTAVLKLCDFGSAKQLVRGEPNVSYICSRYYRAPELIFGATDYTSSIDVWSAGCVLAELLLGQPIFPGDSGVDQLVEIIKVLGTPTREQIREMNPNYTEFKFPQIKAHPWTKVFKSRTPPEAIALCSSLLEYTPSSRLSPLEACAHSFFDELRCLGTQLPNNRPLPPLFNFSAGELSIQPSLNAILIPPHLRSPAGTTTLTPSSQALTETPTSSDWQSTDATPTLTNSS
Protocol: (§4) This was followed by incubation with Kinobeads ε (17.5 µl of settled beads) for 30 min at 4 °C to enrich kinases. […] Enriched proteins were reduced with 50 mM DTT in 8 M urea, 40 mM Tris-HCl, pH 7.4 for 30 min at room temperature, and alkylated with 55 mM chloroacetamide. After reducing the urea concentration to 1–2 M, proteins were digested with trypsin at 37 °C for 16 h. Subsequently, eluted peptides were desalted using SepPak tC18 µElution plates (Waters), freeze-dried by vacuum centrifugation, and stored at −20 °C. Proteins were filtered by potential contaminants, reversed hits and proteins identified only by site. Residual binding of proteins was calculated from LFQ intensities as the ratio between drug doses and vehicle. […] Only kinases quantified with at least 4 unique peptides in the vehicle experiment were considered. Potential targets were further curated through manual inspection of dose-dependent reduction in MS/MS and unique peptide counts.

MAP3K1 ; Q13233 = MAP3K1 ; Q13233 (Homo sapiens, UniProt Q13233); assay: biochemical; design: species or system AsPC-1; Kinobeads competition pulldown in AsPC-1 lysate with LC-MS/MS label-free quantification; apparent Kd
Sequence of MAP3K1 ; Q13233 (Q13233 whole entry): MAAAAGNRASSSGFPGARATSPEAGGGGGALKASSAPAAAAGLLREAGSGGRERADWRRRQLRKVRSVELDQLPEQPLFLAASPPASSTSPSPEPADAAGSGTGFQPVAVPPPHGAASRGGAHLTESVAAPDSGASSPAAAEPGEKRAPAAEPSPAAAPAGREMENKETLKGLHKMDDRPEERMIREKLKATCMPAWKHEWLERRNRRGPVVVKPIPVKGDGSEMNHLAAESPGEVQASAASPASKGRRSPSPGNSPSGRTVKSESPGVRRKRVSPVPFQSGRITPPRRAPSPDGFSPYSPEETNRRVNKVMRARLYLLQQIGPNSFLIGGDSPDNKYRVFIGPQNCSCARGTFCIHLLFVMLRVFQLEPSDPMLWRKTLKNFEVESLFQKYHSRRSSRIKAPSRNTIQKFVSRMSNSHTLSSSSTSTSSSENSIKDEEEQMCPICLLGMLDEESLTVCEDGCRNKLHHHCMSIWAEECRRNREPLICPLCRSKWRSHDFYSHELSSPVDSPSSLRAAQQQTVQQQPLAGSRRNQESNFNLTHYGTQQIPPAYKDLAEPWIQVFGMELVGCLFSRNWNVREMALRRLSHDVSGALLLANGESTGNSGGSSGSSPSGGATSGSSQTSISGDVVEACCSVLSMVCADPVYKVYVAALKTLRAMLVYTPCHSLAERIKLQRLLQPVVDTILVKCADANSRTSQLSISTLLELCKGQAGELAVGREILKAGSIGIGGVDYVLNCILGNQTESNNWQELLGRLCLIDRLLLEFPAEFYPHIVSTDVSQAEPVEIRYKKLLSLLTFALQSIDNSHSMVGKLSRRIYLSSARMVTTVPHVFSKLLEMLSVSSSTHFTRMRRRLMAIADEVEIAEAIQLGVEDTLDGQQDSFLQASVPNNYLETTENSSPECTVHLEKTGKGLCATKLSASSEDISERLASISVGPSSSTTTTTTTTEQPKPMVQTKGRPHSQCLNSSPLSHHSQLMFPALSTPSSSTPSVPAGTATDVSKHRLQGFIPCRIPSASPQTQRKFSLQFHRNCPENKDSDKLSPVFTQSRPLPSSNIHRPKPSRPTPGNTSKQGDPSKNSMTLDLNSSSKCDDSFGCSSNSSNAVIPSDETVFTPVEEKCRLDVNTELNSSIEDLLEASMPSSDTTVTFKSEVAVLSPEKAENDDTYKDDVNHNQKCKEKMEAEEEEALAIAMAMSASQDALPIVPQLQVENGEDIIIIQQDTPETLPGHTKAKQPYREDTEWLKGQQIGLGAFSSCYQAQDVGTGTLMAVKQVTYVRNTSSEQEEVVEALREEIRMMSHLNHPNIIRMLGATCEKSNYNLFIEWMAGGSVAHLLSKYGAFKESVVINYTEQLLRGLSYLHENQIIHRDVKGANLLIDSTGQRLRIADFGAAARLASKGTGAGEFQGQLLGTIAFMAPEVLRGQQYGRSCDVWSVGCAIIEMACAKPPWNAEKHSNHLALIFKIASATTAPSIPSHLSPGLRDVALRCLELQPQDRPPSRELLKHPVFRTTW
Protocol: as §4

[3] = 4 cell line mix lysate, Kinobeads y, ref Klaeger et al. (2017)
[4] = MARK3, 5 cell line mix lysate, Kinobeads ε, ref Reinecke et al. (2023)
[5] = STK10, 5 cell line mix lysate, Kinobeads ε, ref Reinecke et al. (2023)
[6] = 5 cell line mix lysate, Kinobeads ε, ref Reinecke et al. (2023), read-out: KDapp
[7] = 5 cell line mix lysate, Kinobeads ε, ref Reinecke et al. (2023)
[8] = ULK3, 5 cell line mix lysate, Kinobeads ε, ref Reinecke et al. (2023)

## C[C@]12O[C@H](C[C@]1(O)CO)n1c3ccccc3c3c4c(c5c6ccccc6n2c5c31)CNC4=O [Lestaurtinib]
MARK3; MARK3, 4 cell line mix lysate, Kinobeads y, ref Klaeger et al. (2017)
  EC50: […]
STK10; STK10, 4 cell line mix lysate, Kinobeads y, ref Klaeger et al. (2017)
  EC50: […]
BMP2K; [3]
  EC50: 323 nM
CAMK2D; [3]
  EC50: […]
FER; [3]
  EC50: […]
ULK3; ULK3, 4 cell line mix lysate, Kinobeads y, ref Klaeger et al. (2017)
  EC50: […]
AURKB; [3]
  EC50: […]
PaTu-8988-T
  EC50: […]
BxPC-3
  EC50: 432 nM
AURKA; [3]
  EC50: […]

## CCN1CCN(Cc2ccc(Nc3ncc(F)c(-c4cc(F)c5nc(C)n(C(C)C)c5c4)n3)nc2)CC1 [Abemaciclib]
PaTu-8988-T
  EC50: 2850 nM
BxPC-3
  EC50: 337 nM
AsPC-1
  EC50: > 10000 nM

## COc1cc(N2CCC(N3CCN(C)CC3)CC2)ccc1Nc1ncc(Cl)c(Nc2ccccc2P(C)(C)=O)n1 [Brigatinib]
MARK3; [4]
  EC50: 250 nM
  pKDapp: 6.71
MARK3; MARK3, 5 cell line mix lysate, Kinobeads ε, ref Reinecke et al. (2023), read-out: KDapp
  Kd: 193 nM
STK10; [5]
  EC50: 310 nM
  pKDapp: 6.55
STK10; STK10, 5 cell line mix lysate, Kinobeads ε, ref Reinecke et al. (2023), read-out: KDapp
  Kd: 283 nM
BMP2K; [6]
  Kd: 999 nM
BMP2K; [7]
  EC50: 1510 nM
  pKDapp: 6.00
CAMK2D; [6]
  Kd: 86.4 nM
CAMK2D; [7]
  EC50: 424 nM
  pKDapp: 7.06
FER; [7]
  EC50: […]
ULK3; [8]
  EC50: 306 nM
  pKDapp: 6.86
ULK3; ULK3, 5 cell line mix lysate, Kinobeads ε, ref Reinecke et al. (2023), read-out: KDapp
  Kd: 139 nM
AURKB; [6]
  Kd: 1080 nM
AURKB; [7]
  EC50: 1850 nM
  pKDapp: 5.97
AsPC-1
  EC50: 272 nM
AURKA; [6]
  Kd: 224 nM
AURKA; [7]
  EC50: 634 nM
  pKDapp: 6.65

## C[C@@H]1COCCN1c1cc(-c2ccnn2C)c2ccnc(-c3ccn[nH]3)c2n1 [Elimusertib]
[1]
  Mean log2 PTM response (GEM+Elimusertib vs. GEM): -1.06
[2]
  Mean log2 PTM response (GEM+Elimusertib vs. GEM): -1.04
p-sites in Capan-1 cells
  Mean log2 PTM response (GEM+Elimusertib vs. GEM): -1.06
p-sites in PSN-1 cells
  Mean log2 PTM response (GEM+Elimusertib vs. GEM): -1.04 and -1.16
p-sites in Dan-G cells
  Mean log2 PTM response (GEM+Elimusertib vs. GEM): -1.06 and -1.18 and -1.05
p-sites in PANC-1 cells
  Mean log2 PTM response (GEM+Elimusertib vs. GEM): -1.13

## Nc1nn2cc(F)cnc2c1C(=O)Nc1cncc(F)c1N1CCC(C(=O)N2CCN(C3COC3)CC2)CC1 [Gartisertib]
GSK3A ; P49840
  Kd: 0.719 nM
MAP3K1 ; Q13233
  Kd: 422 nM

## Nc1ccn([C@@H]2O[C@H](CO)[C@@H](O)C2(F)F)c(=O)n1 [GEM, Gemcitabine]
[1]; source data 5F (p-site not named), MIAPACA2
  Mean log2 TMT reporter ion intensity: 18.24
[2]; source data 5F (p-site not named), PATU8988T
  Mean log2 TMT reporter ion intensity: 19.97
p-sites in Capan-1 cells; source data 5F (p-site not named), CAPAN1
  Mean log2 TMT reporter ion intensity: 20.29
p-sites in PSN-1 cells; source data 5F (p-site not named), PSN1
  Mean log2 TMT reporter ion intensity: 19.41
p-sites in Dan-G cells; source data 5F (p-site not named), DANG
  Mean log2 TMT reporter ion intensity: 20.35
p-sites in PANC-1 cells; source data 5F (p-site not named), PANC1
  Mean log2 TMT reporter ion intensity: 18.30

## CNCc1ccc(-c2cc(-c3nc(-c4ccc(S(=O)(=O)C(C)C)cc4)cnc3N)on2)cc1 [Berzosertib]
GSK3A ; P49840
  Kd: 39.7 nM
MAP3K1 ; Q13233
  Kd: 11.6 nM
